# Test results as given in PubChem BioAssay AID264 (DTP/NCI, 2004).
# Where “and” joins values, the source holds several entries; their conditions need not be identical. Identical values can stand only once. Records with an inconclusive call do not appear. Peptide text beside a SMILES is read from it. * marks the point of attachment. Trt = c1ccc(C(c2ccccc2)(c2ccccc2)*)cc1; Cbz = O=C(OCc1ccccc1)*
# Tested on: nude mice, LX-1 lung xenograft intrarenal, tumor weight T/C
# Experiment: NCI In Vivo Anticancer Drug Screen. Data for tumor model Human Lung LX-1 Xenograft (intrarenal inoculation) in NU/NU Swiss (nude) mice
# Settings: endpoint: mean tumor weight change, higher = larger tumour
# How it was run: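 Antitumor effect is expressed as a ratio: the mean tumor measurement of the drug-treated group relative to that of the vehicle-dosed control group.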
# [1] = dose: 150.0 mg/kg/injection, schedule: Q04DX003 (sc), vehicle: Klucel (hydroxypropylcellulose) (HPC)
# [2] = dose: 300.0 mg/kg/injection, schedule: Q04DX003 (sc), vehicle: Klucel (hydroxypropylcellulose) (HPC)
# [3] = dose: 600.0 mg/kg/injection, schedule: Q04DX003 (sc), vehicle: Klucel (hydroxypropylcellulose) (HPC)
# [4] = dose: 1200.0 mg/kg/injection, schedule: Q04DX003 (sc), vehicle: Klucel (hydroxypropylcellulose) (HPC)
# [5] = dose: 2400.0 mg/kg/injection, schedule: Q04DX003 (sc), vehicle: Klucel (hydroxypropylcellulose) (HPC)
# [6] = dose: 300.0 mg/kg/injection, schedule: Q04DX003 (sc), vehicle: saline with Tween-80
# [7] = dose: 600.0 mg/kg/injection, schedule: Q04DX003 (sc), vehicle: saline with Tween-80
# [8] = dose: 1200.0 mg/kg/injection, schedule: Q04DX003 (sc), vehicle: saline with Tween-80
# [9] = dose: 50.0 mg/kg/injection, schedule: Q04DX003 (sc), vehicle: saline
# [10] = dose: 75.0 mg/kg/injection, schedule: Q04DX003 (sc), vehicle: saline with Tween-80
# [11] = dose: 150.0 mg/kg/injection, schedule: Q04DX003 (sc), vehicle: saline with Tween-80
smiles,measurement,setting,value
Cc1ccc(S(=O)(=O)N/N=C/C(Br)=C(/Br)C(=O)O)cc1,T/C,[1],66 % of control
same,T/C,[2],58 % of control
same,T/C,[3],43 % of control
C=CCNc1ccc(C)cc1,T/C,"dose: 12.5 mg/kg/injection, schedule: Q01DX010 (sc), vehicle: Klucel (hydroxypropylcellulose) (HPC)",98 % of control
same,T/C,"dose: 25.0 mg/kg/injection, schedule: Q01DX010 (sc), vehicle: Klucel (hydroxypropylcellulose) (HPC)",171 % of control
same,T/C,"dose: 100.0 mg/kg/injection, schedule: Q01DX010 (sc), vehicle: Klucel (hydroxypropylcellulose) (HPC)",107 % of control
same,T/C,"dose: 200.0 mg/kg/injection, schedule: Q01DX010 (sc), vehicle: Klucel (hydroxypropylcellulose) (HPC)",42 % of control
same,T/C,"dose: 400.0 mg/kg/injection, schedule: Q01DX010 (sc), vehicle: Klucel (hydroxypropylcellulose) (HPC)",72 % of control
C#C[C@]1(O)CC[C@H]2[C@@H]3CCc4cc(O)ccc4[C@H]3CC[C@@]21C,T/C,[2],70 % of control
same,T/C,[3],102 % of control
same,T/C,[4],50 % of control
same,T/C,[5],55 % of control
O=[Te]=O,T/C,"dose: 12.5 mg/kg/injection, schedule: Q04DX003 (sc), vehicle: suspension in saline",150 % of control
O=C(NC1CCCCC1)OCc1c(COC(=O)NC2CCCCC2)c(-c2ccc(Cl)c(Cl)c2)n2c1CCC2,T/C,[6],88 % of control
same,T/C,[7],94 % of control
same,T/C,[8],104 % of control
same,T/C,"dose: 2400.0 mg/kg/injection, schedule: Q04DX003 (sc), vehicle: saline with Tween-80",104 % of control
COC(=O)C(CSC(c1ccccc1)(c1ccccc1)c1ccccc1)NC(=O)C(CC(N)=O)NC(=O)OCc1ccccc1 (stereo not drawn) (Cbz-Asn-Cys(Trt)-OMe; configuration not given here),T/C,"dose: 300.0 mg/kg/injection, schedule: Q04DX003 (sc), vehicle: distilled water + Tween-80",79 % of control
same,T/C,"dose: 1200.0 mg/kg/injection, schedule: Q04DX003 (sc), vehicle: distilled water + Tween-80",105 % of control
same,T/C,"dose: 2400.0 mg/kg/injection, schedule: Q04DX003 (sc), vehicle: distilled water + Tween-80",116 % of control
CC[n+]1c(-c2ccccc2)c2cc(N)ccc2c2ccc(N)cc21,T/C,"dose: 15.0 mg/kg/injection, schedule: Q04DX003 (sc), vehicle: saline",80 % of control
same,T/C,"dose: 30.0 mg/kg/injection, schedule: Q04DX003 (sc), vehicle: saline",81 % of control
same,T/C,"dose: 60.0 mg/kg/injection, schedule: Q04DX003 (sc), vehicle: saline",33 % of control
CCN=C=NCCCN(C)C,T/C,"dose: 25.0 mg/kg/injection, schedule: Q04DX003 (sc), vehicle: saline",99 % of control
same,T/C,[9],102 % of control
same,T/C,"dose: 100.0 mg/kg/injection, schedule: Q04DX003 (sc), vehicle: saline",84 % of control
C=C1C(=O)OC2CC(C)C3C4OC4C(O)C3(C)C(O)C12 (stereo not given),T/C,"dose: 100.0 mg/kg/injection, schedule: Q04DX003 (sc), vehicle: saline with Tween-80",97 % of control
same,T/C,"dose: 800.0 mg/kg/injection, schedule: Q04DX003 (sc), vehicle: saline with Tween-80",75 % of control
COc1cccc2c1C(=O)c1c(O)c3c(c(O)c1C2=O)CC(O)(/C(C)=N/NC(=O)CCCCC(=O)N/N=C(\C)C1(O)Cc2c(O)c4c(c(O)c2C(OC2CC(N)C(O)C(C)O2)C1)C(=O)c1c(OC)cccc1C4=O)CC3OC1CC(N)C(O)C(C)O1 (stereo not given),T/C,"dose: 12.5 mg/kg/injection, schedule: Q04DX003 (sc), vehicle: water",28 % of control
same,T/C,"dose: 100.0 mg/kg/injection, schedule: Q04DX003 (sc), vehicle: water",19 % of control
O=C(O)CC(=O)O.[NH-]C1CCCCC1[NH-].[Pt+2] (stereo not given),T/C,"dose: 5.0 mg/kg/injection, schedule: Q01DX010 (sc), vehicle: dextrose",187 % of control and 247 % of control
same,T/C,"dose: 10.0 mg/kg/injection, schedule: Q01DX010 (sc), vehicle: dextrose",92 % of control
C=C[Si]12OCCN(CCO1)CCO2,T/C,[2],250 % of control
same,T/C,[3],212 % of control
same,T/C,[4],163 % of control
COc1cc(O)c2c(O)c3c(c4c2c1[C@]1(C4)C(C)=CCCC1(C)C)[C@H](O)[C@@]1(O)CC(=O)C(C(N)=O)=C(O)[C@@]1(O)C3=O,T/C,[6],55 % of control
same,T/C,[7],58 % of control
same,T/C,[8],42 % of control
C=C1C(=O)C23[C@H](O)C1CC[C@H]2[C@]12COC3(O)[C@@H](O)[C@@H]1C(C)(C)CC[C@@H]2O,T/C,"dose: 18.75 mg/kg/injection, schedule: Q04DX003 (sc), vehicle: Klucel (hydroxypropylcellulose) (HPC)",105 % of control
same,T/C,"dose: 37.5 mg/kg/injection, schedule: Q04DX003 (sc), vehicle: Klucel (hydroxypropylcellulose) (HPC)",49 % of control
Cc1ccc(NCC2(/N=C/c3ccccc3)OC(CO)C(O)C2O)cc1 (stereo not given),T/C,[2],122 % of control
same,T/C,[3],98 % of control
same,T/C,[4],80 % of control
same,T/C,[5],98 % of control
COc1ccc2[nH]c3ccc4cc[n+](CCN5CCC(C6CCN(CC[n+]7ccc8ccc9[nH]c%10ccc(OC)cc%10c9c8c7)CC6)CC5)cc4c3c2c1,T/C,[1],88 % of control
same,T/C,[2],96 % of control
same,T/C,[3],83 % of control
same,T/C,[4],93 % of control
CN1C(=O)NC(c2ccc(Cl)cc2)(c2ccc(Cl)cc2)C1=O,T/C,"dose: 50.0 mg/kg/injection, schedule: Q01DX010 (sc), vehicle: saline with Tween-80",212 % of control
same,T/C,"dose: 100.0 mg/kg/injection, schedule: Q01DX010 (sc), vehicle: saline with Tween-80",191 % of control
same,T/C,"dose: 400.0 mg/kg/injection, schedule: Q01DX010 (sc), vehicle: saline with Tween-80",64 % of control
CC(C)[NH-].CC(C)[NH-].[Cl][Pt+2][Cl],T/C,"dose: 25.0 mg/kg/injection, schedule: Q01DX010 (sc), vehicle: dextrose",48 % of control
same,T/C,"dose: 50.0 mg/kg/injection, schedule: Q01DX010 (sc), vehicle: dextrose",50 % of control
same,T/C,"dose: 100.0 mg/kg/injection, schedule: Q01DX010 (sc), vehicle: dextrose",71 % of control
O=C(O)c1cc(Cc2ccc(O)c(C(=O)O)c2)ccc1O (tested in a mixture with another compound),T/C,[2],89 % of control
same,T/C,[3],64 % of control
same,T/C,[4],91 % of control
same,T/C,[5],68 % of control
COC1=NCN=C2SC=C(N)N=C12,T/C,"dose: 150.0 mg/kg/injection, schedule: Q04DX003 (sc), vehicle: suspension in saline",79 % of control
C[n+]1c2cc(N)ccc2cc2ccc(N)cc21,T/C,"dose: 6.25 mg/kg/injection, schedule: Q01DX010 (sc), vehicle: saline",72 % of control
CC(C)NC(=O)OCc1c(COC(=O)NC(C)C)c(-c2ccc(Cl)c(Cl)c2)n2c1CCC2,T/C,"dose: 25.0 mg/kg/injection, schedule: Q01DX010 (sc), vehicle: distilled water + Tween-80",27 % of control
same,T/C,"dose: 200.0 mg/kg/injection, schedule: Q04DX003 (sc), vehicle: distilled water + Tween-80",68 % of control
same,T/C,"dose: 400.0 mg/kg/injection, schedule: Q04DX003 (sc), vehicle: distilled water + Tween-80",50 % of control
same,T/C,"dose: 800.0 mg/kg/injection, schedule: Q04DX003 (sc), vehicle: distilled water + Tween-80",40 % of control
same,T/C,"dose: 1600.0 mg/kg/injection, schedule: Q04DX003 (sc), vehicle: distilled water + Tween-80",90 % of control
CCOC(=O)C(N)CSC(=O)NC (stereo not given),T/C,[9],165 % of control
same,T/C,"dose: 400.0 mg/kg/injection, schedule: Q04DX003 (sc), vehicle: saline",94 % of control
CC1(C)OC1CS(=O)c1ccccc1 (stereo not given),T/C,[7],121 % of control
same,T/C,[8],89 % of control
CN=S(=O)(OCCCCCOS(=O)(=NC)c1ccc(C)cc1)c1ccc(C)cc1 (stereo not given),T/C,"dose: 37.5 mg/kg/injection, schedule: Q04DX003 (sc), vehicle: saline with Tween-80",72 % of control
same,T/C,[10],83 % of control
same,T/C,[11],88 % of control
same,T/C,[6],30 % of control
O=C1c2ccccc2C(=O)c2c3c(cc(NCCNCCO)c21)N(CCO)CCN3,T/C,"dose: 200.0 mg/kg/injection, schedule: Q04DX003 (sc), vehicle: DMSO",122 % of control
same,T/C,"dose: 400.0 mg/kg/injection, schedule: Q04DX003 (sc), vehicle: DMSO",86 % of control
same,T/C,"dose: 800.0 mg/kg/injection, schedule: Q04DX003 (sc), vehicle: DMSO",83 % of control
COC1=CC(=O)C(OC)=C(OC)C1=O,T/C,"dose: 38.0 mg/kg/injection, schedule: Q04DX003 (sc), vehicle: saline with Tween-80",122 % of control
same,T/C,[10],72 % of control
same,T/C,[11],104 % of control
same,T/C,[6],122 % of control
